# Results as given in patent US8431556B2, “C-21-keto lupane derivatives preparation and use thereof” (Vertex Pharmaceuticals Incorporated, priority 2008, dated 2013).
# pIC50: −log10 of the molar value.
# Tested on: HIV-1 (HIVIIIB)
# Experiment: HIV-1 replication in MT2 cell line with and without 30% human serum (viral RT activity in supernatant)
# Format: cell-based
# Details: Human immunodeficiency virus 1, MT2, MT-2 cells, with 30% human serum, average IC50 if tested more than once, read-out: MT-2 (HIVIIIB) with 30% HS IC50 range
# Method: HIV-1 Replication in MT2 cell line with and without 30% human serum: The cells are infected at a Multiciplicity of Infection (MOI) of 0.5 for 3 h and then washed twice with complete media to remove residual virus. Cells are then resuspended at 0.5×10^6/ml in complete medium (RPMI, 10% FBS, 1% sodium pyruvate), and seeded into 96-well plates (6.25×10^4/well). The cells are cultured in the presence or absence of various concentrations of test compounds in serial dilutions for 3 days at 37° C. The test compounds are serially diluted in complete medium supplemented or not with 30% human serum. After 3 days, 100 μL of cultured medium with cells are replaced with 120 μL of freshly diluted test compounds in complete medium containing or not 30% Human serum. The level of HIV-1 replication is determined at days 5 after infection by the presence of viral RT activity in harvested supernatant fluid. The IC50 and IC90 values for the virus replication are determined by using GRAPHPAD PRISM software.
# The IC50 of the compounds tested in accordance with the HIV replication activity assay MT-2 (HIVIIIB) are represented in Table 4 (without HS) and Table 5 (with 30% HS)
row,SMILES,pIC50
1,"Cc1ccccc1NC(=O)[C@@]12CC[C@]3(C)[C@H](CC[C@@H]4[C@@]5(C)CC[C@H](OC(=O)CC(C)(C)C(=O)O)C(C)(C)[C@@H]5CC[C@]43C)C1=C(C(C)C)C(=O)C2 [9-47, 3β-O-(3′,3′-Dimethylsuccinyl)-21-oxolup-18-en-28-oic acid N-2-methyl-phen-1-yl acetamide]",> 6.70
2,"Cc1cccc(NC(=O)[C@@]23CC[C@]4(C)[C@H](CC[C@@H]5[C@@]6(C)CC[C@H](OC(=O)CC(C)(C)C(=O)O)C(C)(C)[C@@H]6CC[C@]54C)C2=C(C(C)C)C(=O)C3)c1 [9-48, 3β-O-(3′,3′-Dimethylsuccinyl)-21-oxolup-18-en-28-oic acid N-3-methyl-phen-1-yl acetamide]",> 6.70
3,"Cc1ccc(NC(=O)[C@@]23CC[C@]4(C)[C@H](CC[C@@H]5[C@@]6(C)CC[C@H](OC(=O)CC(C)(C)C(=O)O)C(C)(C)[C@@H]6CC[C@]54C)C2=C(C(C)C)C(=O)C3)cc1 [9-49, 3β-O-(3′,3′-Dimethylsuccinyl)-21-oxolup-18-en-28-oic acid N-4-methyl-phen-1-yl acetamide]",> 6.70
4,"CC(C)C1=C2[C@H]3CC[C@@H]4[C@@]5(C)CC[C@H](OC(=O)CC(C)(C)C(=O)O)C(C)(C)[C@@H]5CC[C@@]4(C)[C@]3(C)CC[C@@]2(C(=O)N2C3CCC2CN(C(=O)OC(C)(C)C)C3)CC1=O [9-50, 3β-O-(3′,3′-Dimethylsuccinyl)-21-oxolup-18-en-28-oic acid N-8-acetylamino-3,8-diaza-bicyclo[3.2.1]octane-3-carboxylic acid tert-butyl ester]",> 6.70
5,"CC(C)C1=C2[C@H]3CC[C@@H]4[C@@]5(C)CC[C@H](OC(=O)CC(C)(C)C(=O)O)C(C)(C)[C@@H]5CC[C@@]4(C)[C@]3(C)CC[C@@]2(C(=O)Nc2cncnc2)CC1=O [9-51, 3β-O-(3′,3′-Dimethylsuccinyl)-21-oxolup-18-en-28-oic acid N-pyrimidin-5-yl-acetamide]",> 6.70
6,"CC(C)C1=C2[C@H]3CC[C@@H]4[C@@]5(C)CC[C@H](OC(=O)CC(C)(C)C(=O)O)C(C)(C)[C@@H]5CC[C@@]4(C)[C@]3(C)CC[C@@]2(C(=O)Nc2ccncc2)CC1=O [9-52, 3β-O-(3′,3′-Dimethylsuccinyl)-21-oxolup-18-en-28-oic acid N-pyridin-4-yl-acetamide]",> 6.70
7,"CC(C)C1=C2[C@H]3CC[C@@H]4[C@@]5(C)CC[C@H](OC(=O)CC(C)(C)C(=O)O)C(C)(C)[C@@H]5CC[C@@]4(C)[C@]3(C)CC[C@@]2(C(=O)Nc2ccn(C)n2)CC1=O [9-53, 3β-O-(3′,3′-Dimethylsuccinyl)-21-oxolup-18-en-28-oic acid N-3-amino-1-methyl-1H-pyrazole-acetamide]",> 6.70
8,"CC(C)C1=C2[C@H]3CC[C@@H]4[C@@]5(C)CC[C@H](OC(=O)CC(C)(C)C(=O)O)C(C)(C)[C@@H]5CC[C@@]4(C)[C@]3(C)CC[C@@]2(C(=O)Nc2ccnn2C)CC1=O [9-54, 3β-O-(3′,3′-Dimethylsuccinyl)-21-oxolup-18-en-28-oic acid N-5-amino-1-methyl-1H-pyrazole acetamide]",> 6.70
9,"Cc1ncncc1NC(=O)[C@@]12CC[C@]3(C)[C@H](CC[C@@H]4[C@@]5(C)CC[C@H](OC(=O)CC(C)(C)C(=O)O)C(C)(C)[C@@H]5CC[C@]43C)C1=C(C(C)C)C(=O)C2 [9-55, 3β-O-(3′,3′-Dimethylsuccinyl)-21-oxolup-18-en-28-oic acid N-4-methyl-pyrimidin-5-yl-acetamide]",> 6.70
10,"Cc1ccnc(NC(=O)[C@@]23CC[C@]4(C)[C@H](CC[C@@H]5[C@@]6(C)CC[C@H](OC(=O)CC(C)(C)C(=O)O)C(C)(C)[C@@H]6CC[C@]54C)C2=C(C(C)C)C(=O)C3)n1 [9-56, 3β-O-(3′,3′-Dimethylsuccinyl)-21-oxolup-18-en-28-oic acid N-4-methyl-pyrimidin-2-yl-acetamide]",> 6.70
11,"CC(C)C1=C2[C@H]3CC[C@@H]4[C@@]5(C)CC[C@H](OC(=O)CC(C)(C)C(=O)O)C(C)(C)[C@@H]5CC[C@@]4(C)[C@]3(C)CC[C@@]2(C(=O)Nc2cnn(C)c2)CC1=O [9-57, 3β-O-(3′,3′-Dimethylsuccinyl)-21-oxolup-18-en-28-oic acid N-4-amino-1-methyl-1H-pyrazole acetamide]",> 6.70
12,"Cc1cc(C)nc(NC(=O)[C@@]23CC[C@]4(C)[C@H](CC[C@@H]5[C@@]6(C)CC[C@H](OC(=O)CC(C)(C)C(=O)O)C(C)(C)[C@@H]6CC[C@]54C)C2=C(C(C)C)C(=O)C3)n1 [9-58, 3β-O-(3′,3′-Dimethylsuccinyl)-21-oxolup-18-en-28-oic acid N-4,6-dimethyl-pyrimidin-2-yl-acetamide]",> 6.70
13,"CC(C)C1=C2[C@H]3CC[C@@H]4[C@@]5(C)CC[C@H](OC(=O)CC(C)(C)C(=O)O)C(C)(C)[C@@H]5CC[C@@]4(C)[C@]3(C)CC[C@@]2(C(=O)Nc2cnccn2)CC1=O [9-59, 3β-O-(3′,3′-Dimethylsuccinyl)-21-oxolup-18-en-28-oic acid N-pyrazin-2-yl-acetamide]",> 6.70
14,"CC(C)C1=C2[C@H]3CC[C@@H]4[C@@]5(C)CC[C@H](OC(=O)CC(C)(C)C(=O)O)C(C)(C)[C@@H]5CC[C@@]4(C)[C@]3(C)CC[C@@]2(C(=O)Nc2cnc3ccccc3c2)CC1=O [9-60, 3β-O-(3′,3′-Dimethylsuccinyl)-21-oxolup-18-en-28-oic acid N-quinolin-3-yl-acetamide]",> 6.70
15,"CC(C)C1=C2[C@H]3CC[C@@H]4[C@@]5(C)CC[C@H](OC(=O)CC(C)(C)C(=O)O)C(C)(C)[C@@H]5CC[C@@]4(C)[C@]3(C)CC[C@@]2(C(=O)NCCN2CCCC2)CC1=O [9-61, 3β-O-(3′,3′-Dimethylsuccinyl)-21-oxolup-18-en-28-oic acid N-(2-pyrrolidin-1-yl-ethyl)-acetamide]",> 6.70
16,"Cc1nnc(NC(=O)[C@@]23CC[C@]4(C)[C@H](CC[C@@H]5[C@@]6(C)CC[C@H](OC(=O)CC(C)(C)C(=O)O)C(C)(C)[C@@H]6CC[C@]54C)C2=C(C(C)C)C(=O)C3)o1 [9-62, 3β-O-(3′,3′-Dimethylsuccinyl)-21-oxolup-18-en-28-oic acid N-(5-methyl-[1,3,4]oxadiazol-2-yl)-acetamide]",6.00 to 6.70
17,"CC(C)C1=C2[C@H]3CC[C@@H]4[C@@]5(C)CC[C@H](OC(=O)CC(C)(C)C(=O)O)C(C)(C)[C@@H]5CC[C@@]4(C)[C@]3(C)CC[C@@]2(C(=O)Nc2cncc3ccccc23)CC1=O [9-63, 3β-O-(3′,3′-Dimethylsuccinyl)-21-oxolup-18-en-28-oic acid N-isoquinolin-4-yl-acetamide]",> 6.70
18,"CC(C)C1=C2[C@H]3CC[C@@H]4[C@@]5(C)CC[C@H](OC(=O)CC(C)(C)C(=O)O)C(C)(C)[C@@H]5CC[C@@]4(C)[C@]3(C)CC[C@@]2(C(=O)Nc2ccncn2)CC1=O [9-64, 3β-O-(3′,3′-Dimethylsuccinyl)-21-oxolup-18-en-28-oic acid N-pyrimidin-4-yl-acetamide]",> 6.70
19,"CC(C)C1=C2[C@H]3CC[C@@H]4[C@@]5(C)CC[C@H](OC(=O)CC(C)(C)C(=O)O)C(C)(C)[C@@H]5CC[C@@]4(C)[C@]3(C)CC[C@@]2(C(=O)Nc2ccccc2C(F)(F)F)CC1=O [9-65, 3β-O-(3′,3′-Dimethylsuccinyl)-21-oxolup-18-en-28-oic acid N-2-trifluoromethyl-phen-1-yl acetamide]",> 6.70
20,"CC(C)C1=C2[C@H]3CC[C@@H]4[C@@]5(C)CC[C@H](OC(=O)CC(C)(C)C(=O)O)C(C)(C)[C@@H]5CC[C@@]4(C)[C@]3(C)CC[C@@]2(C(=O)Nc2nnnn2C)CC1=O [9-66, 3β-O-(3′,3′-Dimethylsuccinyl)-21-oxolup-18-en-28-oic acid N-(1-methyl-1H-tetrazol-5-yl)-acetamide]",6.00 to 6.70
21,"CCOC(=O)NC1CCN(C(=O)[C@@]23CC[C@]4(C)[C@H](CC[C@@H]5[C@@]6(C)CC[C@H](OC(=O)CC(C)(C)C(=O)O)C(C)(C)[C@@H]6CC[C@]54C)C2=C(C(C)C)C(=O)C3)CC1 [9-67, 3β-O-(3′,3′-Dimethylsuccinyl)-21-oxolup-18-en-28-oic acid N-(4-aminocarboxylic acid ethyl ester-1-piperidine)-acetamide]",> 6.70
22,"CC(C)OC(=O)NC1CCN(C(=O)[C@@]23CC[C@]4(C)[C@H](CC[C@@H]5[C@@]6(C)CC[C@H](OC(=O)CC(C)(C)C(=O)O)C(C)(C)[C@@H]6CC[C@]54C)C2=C(C(C)C)C(=O)C3)CC1 [9-68, 3β-O-(3′,3′-Dimethylsuccinyl)-21-oxolup-18-en-28-oic acid N-(4-aminocarboxylic acid isopropyl ester-1-piperidine)-acetamide]",> 6.70
23,"CC(C)C1=C2[C@H]3CC[C@@H]4[C@@]5(C)CC[C@H](OC(=O)CC(C)(C)C(=O)O)C(C)(C)[C@@H]5CC[C@@]4(C)[C@]3(C)CC[C@@]2(C(=O)NCC2CC2)CC1=O [9-69, 3β-O-(3′,3′-Dimethylsuccinyl)-21-oxolup-18-en-28-oic acid N-cyclopropylmethyl acetamide]",> 6.70
24,"CC(C)C1=C2[C@H]3CC[C@@H]4[C@@]5(C)CC[C@H](OC(=O)CC(C)(C)C(=O)O)C(C)(C)[C@@H]5CC[C@@]4(C)[C@]3(C)CC[C@@]2(C(=O)N2CCC2)CC1=O [9-70, 3β-O-(3′,3′-Dimethylsuccinyl)-21-oxolup-18-en-28-oic acid N-azetidine-1 acetamide]",> 6.70
